Experimental findings from ChEMBL document CHEMBL4229521, “Identification of a novel series of potent and selective CCR6 inhibitors as biological probes” (Bioorg Med Chem Lett, 2018) are described below.

For data set [1], the target named is T1, C-C chemokine receptor type 6 (Homo sapiens, UniProt P51684).
T1 sequence (P51684 whole entry): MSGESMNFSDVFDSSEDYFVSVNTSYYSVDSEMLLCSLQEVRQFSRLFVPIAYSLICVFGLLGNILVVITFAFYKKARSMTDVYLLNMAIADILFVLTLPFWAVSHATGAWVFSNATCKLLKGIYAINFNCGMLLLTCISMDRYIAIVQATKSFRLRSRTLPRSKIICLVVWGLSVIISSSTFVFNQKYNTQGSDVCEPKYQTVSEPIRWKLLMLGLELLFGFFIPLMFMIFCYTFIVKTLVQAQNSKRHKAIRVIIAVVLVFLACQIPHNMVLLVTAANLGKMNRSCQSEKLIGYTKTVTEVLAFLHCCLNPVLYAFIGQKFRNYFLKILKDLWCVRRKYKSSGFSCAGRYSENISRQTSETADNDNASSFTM
Put plainly: Inhibition of human CCR6 expressed in CHO cells assessed as decrease in CCL20-induced reduction of forskolin-stimulated cAMP accumulation preincubated for 30 mins followed agonist addition measured after 30 mins by HTRF assay. It counts as functional, cell-based.

Data set [2] can be described thus: Metabolic stability in human liver microsomes. It counts as ADME, microsome. Conditions: read-out: Stability.
Data set [3] is described as follows: Cytotoxicity against human B cells assessed as ATP content at 30 uM by cell titer glo-based luminescence assay relative to control. Conditions: read-out: Activity.
Data set [4] in a line: Solubility of the compound in water at pH 6.8. It counts as physicochemical.
Data set [5] can be described thus: Solubility of the compound in buffer solution at pH 6.8. It counts as physicochemical.
The target of data set [6] is T2, C-C chemokine receptor type 1 (Homo sapiens, UniProt P32246).
T2 sequence (P32246 whole entry): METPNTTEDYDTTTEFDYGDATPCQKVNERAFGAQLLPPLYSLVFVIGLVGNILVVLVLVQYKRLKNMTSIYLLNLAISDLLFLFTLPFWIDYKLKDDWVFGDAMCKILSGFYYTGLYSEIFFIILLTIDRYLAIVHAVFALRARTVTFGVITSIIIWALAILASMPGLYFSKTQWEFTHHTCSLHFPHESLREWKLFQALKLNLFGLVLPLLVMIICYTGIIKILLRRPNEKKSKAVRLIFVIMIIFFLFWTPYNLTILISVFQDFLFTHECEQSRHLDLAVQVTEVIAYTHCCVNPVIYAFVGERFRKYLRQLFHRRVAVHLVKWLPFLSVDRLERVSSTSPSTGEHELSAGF
Put plainly: Inhibition of human CCR1 expressed in CHO cells assessed as decrease in RANTES-induced reduction of forskolin-stimulated cAMP accumulation preincubated for 30 mins followed agonist addition measured after 30 mins by HTRF assay. It counts as functional, cell-based.

Data set [7] has as its target T3, C-C chemokine receptor type 7 (Homo sapiens, UniProt P32248).
T3 sequence (P32248 whole entry): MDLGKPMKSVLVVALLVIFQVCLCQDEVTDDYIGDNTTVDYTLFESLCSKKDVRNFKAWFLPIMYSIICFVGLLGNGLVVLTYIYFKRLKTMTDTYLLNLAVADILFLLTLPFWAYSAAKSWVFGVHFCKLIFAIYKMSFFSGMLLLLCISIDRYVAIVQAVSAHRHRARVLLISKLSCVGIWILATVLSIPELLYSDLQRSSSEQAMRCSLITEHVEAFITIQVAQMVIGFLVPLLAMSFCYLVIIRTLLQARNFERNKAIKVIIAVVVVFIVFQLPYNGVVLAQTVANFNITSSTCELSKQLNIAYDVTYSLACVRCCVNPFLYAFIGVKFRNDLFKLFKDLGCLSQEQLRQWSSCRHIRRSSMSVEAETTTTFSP
Put plainly: Inhibition of human CCR7 expressed in CHO cells assessed as decrease in CCL19-induced reduction of forskolin-stimulated cAMP accumulation preincubated for 30 mins followed agonist addition measured after 30 mins by HTRF assay. It counts as functional, cell-based.

In data set [8] the target is T4, C-C chemokine receptor type 6 (Macaca mulatta, UniProt H9YX08).
T4 sequence (H9YX08 whole entry): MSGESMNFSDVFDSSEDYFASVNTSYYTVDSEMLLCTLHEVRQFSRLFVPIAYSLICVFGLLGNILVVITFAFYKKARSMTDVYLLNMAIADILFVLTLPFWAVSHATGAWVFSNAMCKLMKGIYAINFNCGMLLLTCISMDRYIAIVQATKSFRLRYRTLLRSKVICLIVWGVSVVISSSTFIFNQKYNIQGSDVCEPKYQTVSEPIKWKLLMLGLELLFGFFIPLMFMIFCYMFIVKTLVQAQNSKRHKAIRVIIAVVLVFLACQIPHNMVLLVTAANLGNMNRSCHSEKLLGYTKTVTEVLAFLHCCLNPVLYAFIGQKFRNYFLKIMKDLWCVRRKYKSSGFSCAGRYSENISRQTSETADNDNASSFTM
Put plainly: Inhibition of monkey CCR6 expressed in CHO cells assessed as decrease in CCL20-induced reduction of forskolin-stimulated cAMP accumulation preincubated for 30 mins followed agonist addition measured after 30 mins by HTRF assay. It counts as cell-based.

The nature of data set [9]: AUC (0 to 24 hrs) in cynomolgus monkey at 0.1 mg/kg, iv. It counts as ADME, organism-based, Macaca fascicularis. Details: dose 0.1 mg/kg, time < 24 hr, route intravenous. Conditions: in vivo.
A short description of data set [10]: AUC (0 to 24 hrs) in cynomolgus monkey at 1 mg/kg, po. Also noted: dose 1 mg/kg, time < 24 hr, route oral. It counts as ADME, organism-based, Macaca fascicularis. As to conditions: in vivo.
A short description of data set [11]: Volume of distribution at steady state in cynomolgus monkey at 0.1 mg/kg, iv or 1 mg/kg, po. It counts as ADME, organism-based, Macaca fascicularis. As to conditions: in vivo, read-out: Vdss.
A short description of data set [12]: Clearance in cynomolgus monkey at 0.1 mg/kg, iv or 1 mg/kg, po. It counts as ADME, organism-based, Macaca fascicularis. Conditions: in vivo.
Data set [13] is described as follows: Fraction unbound in cynomolgus monkey plasma at 0.1 mg/kg, iv or 1 mg/kg, po. It counts as ADME, organism-based, Macaca fascicularis.
A short description of data set [14]: Oral bioavailability in cynomolgus monkey at 1 mg/kg. Conditions: in vivo. It counts as ADME, organism-based, Macaca fascicularis.
For a further data set, the target named is T5, CYP1A2 (Homo sapiens, UniProt P05177).
T5 sequence (P05177 whole entry): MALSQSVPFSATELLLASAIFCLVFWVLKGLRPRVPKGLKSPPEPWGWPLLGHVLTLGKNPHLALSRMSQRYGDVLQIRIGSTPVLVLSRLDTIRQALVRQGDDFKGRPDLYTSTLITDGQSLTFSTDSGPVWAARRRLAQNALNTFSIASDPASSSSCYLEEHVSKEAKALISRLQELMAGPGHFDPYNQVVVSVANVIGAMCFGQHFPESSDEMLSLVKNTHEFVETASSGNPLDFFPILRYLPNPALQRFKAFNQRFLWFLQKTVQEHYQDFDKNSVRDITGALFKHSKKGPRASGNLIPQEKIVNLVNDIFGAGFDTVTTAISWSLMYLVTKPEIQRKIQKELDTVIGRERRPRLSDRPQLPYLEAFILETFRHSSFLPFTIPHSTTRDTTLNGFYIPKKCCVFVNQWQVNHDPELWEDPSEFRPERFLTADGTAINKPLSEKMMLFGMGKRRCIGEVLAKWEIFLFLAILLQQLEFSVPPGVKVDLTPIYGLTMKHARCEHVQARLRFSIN
Put plainly: Inhibition of CYP1A2 (unknown origin) at 10 uM relative to control. It counts as ADME.

In a further data set the target is T6, CYP2C8 (Homo sapiens, UniProt P10632).
T6 sequence (P10632 whole entry): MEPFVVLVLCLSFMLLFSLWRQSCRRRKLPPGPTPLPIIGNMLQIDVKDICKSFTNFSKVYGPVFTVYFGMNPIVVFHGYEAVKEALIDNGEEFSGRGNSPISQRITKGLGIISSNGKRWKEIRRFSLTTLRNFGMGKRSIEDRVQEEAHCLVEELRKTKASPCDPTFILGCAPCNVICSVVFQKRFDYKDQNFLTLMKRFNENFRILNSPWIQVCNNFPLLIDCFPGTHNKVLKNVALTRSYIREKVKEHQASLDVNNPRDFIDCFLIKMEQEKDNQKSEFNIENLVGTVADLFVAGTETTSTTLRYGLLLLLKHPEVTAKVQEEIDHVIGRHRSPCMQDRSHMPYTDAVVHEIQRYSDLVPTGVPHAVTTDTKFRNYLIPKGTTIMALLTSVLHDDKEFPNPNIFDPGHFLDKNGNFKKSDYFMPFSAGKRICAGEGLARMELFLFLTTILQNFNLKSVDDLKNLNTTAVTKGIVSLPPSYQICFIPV
Put plainly: Inhibition of CYP2C8 (unknown origin) at 10 uM relative to control. It counts as ADME.

A further data set addresses CYP2D6 (Homo sapiens, UniProt P10635). Kind of data set: Inhibition of CYP2D6 (unknown origin) at 10 uM relative to control. It counts as ADME.
The target in another data set is CYP3A4 (Homo sapiens, UniProt P08684). Put plainly: Inhibition of CYP3A4 (unknown origin) at 10 uM relative to control. It counts as ADME.
The next data set has as its target CYP2C9 (Homo sapiens, UniProt P11712). Kind of data set: Inhibition of CYP2C9 (unknown origin) at 10 uM relative to control. It counts as ADME.
Data set [15] addresses T7, Voltage-gated inwardly rectifying potassium channel KCNH2 (Homo sapiens, UniProt Q12809). Kind of data set: Inhibition of human ERG in presence of BSA.
Data set [16] deals with T7, Voltage-gated inwardly rectifying potassium channel KCNH2. Put plainly: Inhibition of human ERG in absence of BSA.

pIC50: −log10 of the molar value. A value given as a limit tells only on which side of the number the result lay.

T7 sequence (Q12809 whole entry): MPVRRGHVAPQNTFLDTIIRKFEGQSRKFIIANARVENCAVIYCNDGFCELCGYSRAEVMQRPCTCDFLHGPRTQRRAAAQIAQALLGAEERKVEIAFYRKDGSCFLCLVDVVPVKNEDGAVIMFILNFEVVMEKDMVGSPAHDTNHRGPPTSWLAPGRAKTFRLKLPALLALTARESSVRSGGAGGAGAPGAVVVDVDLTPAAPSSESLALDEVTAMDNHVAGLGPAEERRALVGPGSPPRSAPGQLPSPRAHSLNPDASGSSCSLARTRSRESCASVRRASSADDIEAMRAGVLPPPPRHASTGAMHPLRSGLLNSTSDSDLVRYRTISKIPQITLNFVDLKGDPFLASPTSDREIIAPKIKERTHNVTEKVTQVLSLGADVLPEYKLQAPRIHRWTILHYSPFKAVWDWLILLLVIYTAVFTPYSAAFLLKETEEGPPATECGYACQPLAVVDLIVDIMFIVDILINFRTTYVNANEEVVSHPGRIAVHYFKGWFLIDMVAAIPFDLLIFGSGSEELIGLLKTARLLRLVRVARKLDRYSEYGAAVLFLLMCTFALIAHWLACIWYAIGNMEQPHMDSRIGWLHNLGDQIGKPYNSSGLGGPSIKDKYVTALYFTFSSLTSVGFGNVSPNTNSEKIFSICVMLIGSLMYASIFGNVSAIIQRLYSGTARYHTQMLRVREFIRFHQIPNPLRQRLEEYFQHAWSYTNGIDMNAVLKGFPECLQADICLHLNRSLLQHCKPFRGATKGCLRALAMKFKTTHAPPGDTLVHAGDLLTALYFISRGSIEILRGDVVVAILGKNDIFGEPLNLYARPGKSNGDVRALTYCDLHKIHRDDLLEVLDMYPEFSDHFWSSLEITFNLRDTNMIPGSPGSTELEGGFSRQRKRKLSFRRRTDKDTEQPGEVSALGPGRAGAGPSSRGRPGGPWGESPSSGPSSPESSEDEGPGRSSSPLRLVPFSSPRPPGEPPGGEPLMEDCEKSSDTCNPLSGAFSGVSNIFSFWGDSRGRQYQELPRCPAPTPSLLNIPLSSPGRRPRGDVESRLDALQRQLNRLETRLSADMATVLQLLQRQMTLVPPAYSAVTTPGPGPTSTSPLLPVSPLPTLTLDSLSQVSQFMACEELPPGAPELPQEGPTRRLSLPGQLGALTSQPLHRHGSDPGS
CYP3A4, sequence (P08684 whole entry): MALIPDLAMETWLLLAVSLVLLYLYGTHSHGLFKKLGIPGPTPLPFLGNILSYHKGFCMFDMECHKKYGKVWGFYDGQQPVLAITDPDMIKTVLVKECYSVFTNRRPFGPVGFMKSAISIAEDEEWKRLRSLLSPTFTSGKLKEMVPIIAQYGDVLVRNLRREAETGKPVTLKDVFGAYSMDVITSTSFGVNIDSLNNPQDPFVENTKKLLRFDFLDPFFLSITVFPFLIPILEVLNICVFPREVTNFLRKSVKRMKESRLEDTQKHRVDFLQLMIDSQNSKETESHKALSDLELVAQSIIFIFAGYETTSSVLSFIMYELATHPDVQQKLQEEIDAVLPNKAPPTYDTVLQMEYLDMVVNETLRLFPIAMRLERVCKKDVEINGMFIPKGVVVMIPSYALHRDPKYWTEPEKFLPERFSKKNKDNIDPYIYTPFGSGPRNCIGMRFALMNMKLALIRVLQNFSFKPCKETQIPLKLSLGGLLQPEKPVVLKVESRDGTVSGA
CYP2C9, sequence (P11712 whole entry): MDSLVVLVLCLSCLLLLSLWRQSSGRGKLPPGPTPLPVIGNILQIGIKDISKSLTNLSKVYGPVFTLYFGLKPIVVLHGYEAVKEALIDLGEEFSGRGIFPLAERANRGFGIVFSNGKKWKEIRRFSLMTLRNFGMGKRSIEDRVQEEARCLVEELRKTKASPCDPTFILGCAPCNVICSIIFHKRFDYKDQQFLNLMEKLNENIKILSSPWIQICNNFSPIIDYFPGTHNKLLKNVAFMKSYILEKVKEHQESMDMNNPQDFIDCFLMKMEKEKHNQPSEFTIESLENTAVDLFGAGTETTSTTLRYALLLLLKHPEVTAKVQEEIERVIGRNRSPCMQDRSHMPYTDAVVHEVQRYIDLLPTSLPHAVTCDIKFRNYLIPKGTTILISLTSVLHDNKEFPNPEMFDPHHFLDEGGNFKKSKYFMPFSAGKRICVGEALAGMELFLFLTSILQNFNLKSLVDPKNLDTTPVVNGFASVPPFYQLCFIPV
CYP2D6, sequence (P10635 whole entry): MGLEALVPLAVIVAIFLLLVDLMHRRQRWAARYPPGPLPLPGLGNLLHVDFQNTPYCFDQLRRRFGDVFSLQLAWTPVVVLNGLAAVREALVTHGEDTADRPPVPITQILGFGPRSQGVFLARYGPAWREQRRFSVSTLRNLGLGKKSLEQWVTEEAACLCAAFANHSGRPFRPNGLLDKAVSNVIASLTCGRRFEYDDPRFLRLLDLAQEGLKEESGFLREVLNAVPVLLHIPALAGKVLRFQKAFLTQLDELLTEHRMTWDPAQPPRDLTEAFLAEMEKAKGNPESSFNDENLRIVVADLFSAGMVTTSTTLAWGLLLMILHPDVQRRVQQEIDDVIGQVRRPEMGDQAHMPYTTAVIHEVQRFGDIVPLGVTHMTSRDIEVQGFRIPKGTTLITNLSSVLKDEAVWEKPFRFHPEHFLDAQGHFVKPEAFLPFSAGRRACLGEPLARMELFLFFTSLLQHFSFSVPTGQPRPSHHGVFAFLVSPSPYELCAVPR

Consider `COc1ccc(S(=O)(=O)N2CCC(Nc3ccc(C#N)cc3)CC2)cc1`, for which, in data set [1], the negative-log IC50 (pIC50) was 5.72. For the same compound, the microsomal CLint in data set [2] came to 69 µL/min/mg. For the same compound, in data set [3], the viability at 30 µM came to 44.9%.

With `COc1ccc(S(=O)(=O)N2CCC(Nc3ccc(C#N)cn3)CC2)cc1`, the negative-log IC50 (pIC50) in [1] was 5.60. In [2], the microsomal CLint came out at 19 µL/min/mg. For the same compound, the viability at 30 µM in data set [3] is 72.7%.

On to `CC(C)(C)c1ccc(S(=O)(=O)N2CCC(Nc3ccc(C#N)cn3)CC2)cc1`, for which the solubility in [4] and in [5] was below 0.1 µg/mL throughout.

On to `N#Cc1ccc(-c2ccc(S(=O)(=O)[C@H]3CC[C@H](Nc4ccc(C(F)(F)F)cn4)CC3)cc2)cc1`, for which the pIC50 in [6] and in data set [7] was below 4.52 each time.

Turning to `Cc1cccc(S(=O)(=O)N2CCC(Nc3ccc(C#N)cn3)CC2)c1`, the pIC50 in data set [1] is below 4.52.

Take `N#Cc1ccc(NC2CCN(S(=O)(=O)c3ccc(-c4ccccc4)cc3)CC2)nc1`: the pIC50 in data set [1] is 6.54; in [8], 6.55; in data set [6] it was below 4.52; in [7] it was below 4.52.

With `NC(=O)c1ccc(-c2ccc(S(=O)(=O)[C@H]3CC[C@H](Nc4ccc(C(F)(F)F)cn4)CC3)cc2)cn1`, the pIC50 was below 4.52 in [6] and 4.74 in data set [7].

As to `Cc1ccc(S(=O)(=O)N2CCC(Nc3ccc(C#N)cn3)CC2)cc1`, the negative logarithm of the IC50 (pIC50) is 5.51 in data set [1], 5.89 in data set [8], below 4.52 in data set [6] and below 4.52 in [7].

As to `COc1ccc(S(=O)(=O)N2CCC(Nc3cccc(C#N)n3)CC2)cc1`, in [1], the pIC50 is 5.13.

As for `CC(=O)Nc1ccc(S(=O)(=O)N2CCC(Nc3ccc(C#N)cn3)CC2)cc1`, in [1], the pIC50 was below 4.52.

`NC(=O)c1cc(-c2ccc(S(=O)(=O)[C@H]3CC[C@H](Nc4ccc(C(F)(F)F)cn4)CC3)cc2)ccn1`: the pIC50 in [6] was below 4.52; in data set [7], 5.03. The figures for the exposure AUC(0-t) at 24 h in data set [9] and in data set [10] were 1550 ng·h/mL and 10000 ng·h/mL, respectively. The Vd in data set [11] stood at 0.704 L/kg. In addition, the clearance in data set [12] was 1.1 mL/min/kg. The fraction unbound in data set [13] came out at 0.01. In [14], the bioavailability is 65%. Further, the inhibition at 10 µM against CYP1A2 was below 50%; at CYP2C8, below 50%; at CYP2D6, below 50%; at CYP3A4 it was below 50%; against CYP2C9 it was 51%. The “inhibition (INH)” value in data set [15] and in data set [16] was below 50% in each case.

With `COc1ccc(NC2CCN(S(=O)(=O)c3ccc(OC)cc3)CC2)cc1`, the negative-log IC50 (pIC50) in [1] is below 4.52.

Consider `NC(=O)c1ccc(-c2ccc(S(=O)(=O)[C@H]3CC[C@H](Nc4ccc(C(F)(F)F)cn4)CC3)cc2)cc1`, for which the pIC50 in data set [6] and in [7] was below 4.52 throughout.

As to `COc1ccc(S(=O)(=O)N2CCC(Nc3cc(C#N)ccn3)CC2)cc1`, the negative logarithm of the IC50 (pIC50) in data set [1] is below 4.52.

On to `N#Cc1ccc(NC2CCN(S(=O)(=O)c3cccc(-c4ccccc4)c3)CC2)nc1`, for which the pIC50 in [1] was below 4.52.

With `COc1ccc(S(=O)(=O)N2CCC(Nc3ccc(C#N)cn3)C2)cc1` (stereo not given), in [1], the pIC50 is below 4.52.

For the compound `N#Cc1ccc(NC2CCN(S(=O)(=O)c3ccc(Cl)cc3)CC2)nc1`, the negative logarithm of the IC50 (pIC50) in data set [1] was 5.82.
